Test results: PubChem BioAssay AID248 (DTP/NCI, 2004)
Where “and” joins values, the source holds several entries; their conditions need not be identical. Identical values can stand only once. Toxic doses and inconclusive results are not listed. No stated cut-off is given here; in the data, active means T/C of 150% or more; inactive means T/C below 125%.

System: L1210 leukemia ip in BDF1 mice, survival T/C
Assay: NCI In Vivo Anticancer Drug Screen. Data for tumor model L1210 Leukemia (intraperitoneal) in B6D2F1 (BDF1) mice
Conditions: endpoint: mean survival time, higher = longer survival
How it was run: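 Read-out is survival time, reported as the treated-group measurement over the vehicle-control measurement.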

[1] = dose: 25.0 mg/kg/injection, schedule: Q04DX002 (ip), vehicle: Klucel (hydroxypropylcellulose) (HPC)
[2] = dose: 100.0 mg/kg/injection, schedule: Q01DX009 (ip), vehicle: saline with Tween-80
[3] = dose: 100.0 mg/kg/injection, schedule: Q04DX003 (ip), vehicle: Klucel (hydroxypropylcellulose) (HPC)
[4] = dose: 200.0 mg/kg/injection, schedule: Q04DX003 (ip), vehicle: Klucel (hydroxypropylcellulose) (HPC)

Measured: T/C

CNC(=O)NC1CC(OC2CC(O)(C(C)=O)Cc3c(O)c4c(c(O)c32)C(=O)c2c(OC)cccc2C4=O)OC(C)C1O (centres undefined)
inactive: dose: 2.0 mg/kg/injection, schedule: Q04DX003 (ip), vehicle: water 103 % of control | dose: 3.12 mg/kg/injection, schedule: Q01DX009 (ip), vehicle: saline with Tween-80 108 % of control | dose: 4.0 mg/kg/injection, schedule: Q04DX003 (ip), vehicle: water 98 % of control | dose: 6.25 mg/kg/injection, schedule: Q01DX009 (ip), vehicle: saline with Tween-80 97 % of control | dose: 8.0 mg/kg/injection, schedule: Q04DX003 (ip), vehicle: water 107 % of control | dose: 12.5 mg/kg/injection, schedule: Q01DX009 (ip), vehicle: saline with Tween-80 103 % of control | dose: 12.5 mg/kg/injection, schedule: Q04DX003 (ip), vehicle: saline with Tween-80 100 % of control | dose: 16.0 mg/kg/injection, schedule: Q04DX003 (ip), vehicle: water 95 % of control and 103 % of control | dose: 25.0 mg/kg/injection, schedule: Q01DX009 (ip), vehicle: saline with Tween-80 112 % of control | dose: 25.0 mg/kg/injection, schedule: Q04DX003 (ip), vehicle: saline with Tween-80 100 % of control | dose: 32.0 mg/kg/injection, schedule: Q04DX003 (ip), vehicle: water 100 % of control | dose: 50.0 mg/kg/injection, schedule: Q01DX009 (ip), vehicle: saline with Tween-80 111 % of control | dose: 50.0 mg/kg/injection, schedule: Q04DX003 (ip), vehicle: saline with Tween-80 100 % of control | dose: 64.0 mg/kg/injection, schedule: Q04DX003 (ip), vehicle: water 104 % of control | dose: 100.0 mg/kg/injection, schedule: Q04DX003 (ip), vehicle: saline with Tween-80 100 % of control | dose: 125.0 micrograms/kg/injection, schedule: Q04DX003 (ip), vehicle: water 104 % of control | dose: 250.0 micrograms/kg/injection, schedule: Q04DX003 (ip), vehicle: water 104 % of control | dose: 500.0 micrograms/kg/injection, schedule: Q04DX003 (ip), vehicle: water 105 % of control | dose: 1000.0 micrograms/kg/injection, schedule: Q04DX003 (ip), vehicle: water 104 % of control | dose: 2000.0 micrograms/kg/injection, schedule: Q04DX003 (ip), vehicle: water 101 % of control

CCC(C)[P+](c1ccccc1)(c1ccccc1)c1ccccc1 (centres undefined)
inactive: dose: 3.75 mg/kg/injection, schedule: Q01DX001 (ip), vehicle: carboxymethylcellulose (CMC) 118 % of control | dose: 7.0 mg/kg/injection, schedule: Q01DX015 (ip), vehicle: carboxymethylcellulose (CMC) 118 % of control | dose: 7.5 mg/kg/injection, schedule: Q01DX001 (ip), vehicle: carboxymethylcellulose (CMC) 118 % of control | dose: 12.5 mg/kg/injection, schedule: Q04DX002 (ip), vehicle: Klucel (hydroxypropylcellulose) (HPC) 109 % of control | dose: 14.0 mg/kg/injection, schedule: Q01DX015 (ip), vehicle: carboxymethylcellulose (CMC) 120 % of control | dose: 15.0 mg/kg/injection, schedule: Q01DX001 (ip), vehicle: carboxymethylcellulose (CMC) 119 % of control | [1] 91 % of control

COc1ccc(Cc2ccc3[nH]c(=O)cc(C)c3c2)cc1S(=O)(=O)O
inactive: dose: 100.0 mg/kg/injection, schedule: Q01DX001 (ip), vehicle: saline 104 % of control | dose: 200.0 mg/kg/injection, schedule: Q01DX001 (ip), vehicle: saline 105 % of control | dose: 400.0 mg/kg/injection, schedule: Q01DX001 (ip), vehicle: saline 94 % of control

Nc1ncnc2c1nnn2C1CC(CO)C(O)C1O (centres undefined)
inactive: dose: 50.0 mg/kg/injection, schedule: Q04DX003 (ip), vehicle: other 112 % of control | dose: 67.0 mg/kg/injection, schedule: Q01DX009 (ip), vehicle: saline with Tween-80 122 % of control | dose: 67.0 mg/kg/injection, schedule: Q04DX003 (ip), vehicle: other 106 % of control | [2] 118 % of control | dose: 100.0 mg/kg/injection, schedule: Q04DX003 (ip), vehicle: other 114 % of control | dose: 150.0 mg/kg/injection, schedule: Q01DX009 (ip), vehicle: saline with Tween-80 118 % of control | dose: 150.0 mg/kg/injection, schedule: Q04DX003 (ip), vehicle: other 111 % of control | dose: 200.0 mg/kg/injection, schedule: Q04DX003 (ip), vehicle: other 123 % of control

COC(=O)c1cc(N2CC2)nc(Cl)n1
inactive: dose: 25.0 mg/kg/injection, schedule: Q01DX Z (ip), vehicle: methylcellulose (MC) 101 % of control | dose: 50.0 mg/kg/injection, schedule: Q01DX Z (ip), vehicle: methylcellulose (MC) 93 % of control

CC(C)=CCC(N)C(C)c1ccccc1 (centres undefined)
inactive: dose: 12.5 mg/kg/injection, schedule: Q01DX009 (ip), vehicle: Klucel (hydroxypropylcellulose) (HPC) 96 % of control | dose: 25.0 mg/kg/injection, schedule: Q01DX009 (ip), vehicle: Klucel (hydroxypropylcellulose) (HPC) 98 % of control | [1] 94 % of control | dose: 50.0 mg/kg/injection, schedule: Q01DX009 (ip), vehicle: Klucel (hydroxypropylcellulose) (HPC) 104 % of control | dose: 50.0 mg/kg/injection, schedule: Q04DX002 (ip), vehicle: Klucel (hydroxypropylcellulose) (HPC) 105 % of control | dose: 100.0 mg/kg/injection, schedule: Q04DX002 (ip), vehicle: Klucel (hydroxypropylcellulose) (HPC) 102 % of control

O=C1CCCCCCNCCCCCC1
inactive: dose: 100.0 mg/kg/injection, schedule: Q01DX001 (ip), vehicle: acetone 97 % of control | dose: 200.0 mg/kg/injection, schedule: Q01DX001 (ip), vehicle: acetone 108 % of control | dose: 400.0 mg/kg/injection, schedule: Q01DX001 (ip), vehicle: acetone 103 % of control

O=[N+]([O-])/C=C/c1cccc2ccccc12
inactive: dose: 75.0 mg/kg/injection, schedule: Q01DX001 (ip), vehicle: saline 94 % of control | dose: 150.0 mg/kg/injection, schedule: Q01DX001 (ip), vehicle: saline 94 % of control | dose: 300.0 mg/kg/injection, schedule: Q01DX001 (ip), vehicle: saline 101 % of control

CCCCCCC(CCC)CCCCCC
inactive: dose: 100.0 mg/kg/injection, schedule: Q04DX002 (ip), vehicle: saline with Tween-80 98 % of control | dose: 200.0 mg/kg/injection, schedule: Q04DX002 (ip), vehicle: saline with Tween-80 104 % of control | dose: 400.0 mg/kg/injection, schedule: Q04DX002 (ip), vehicle: saline with Tween-80 98 % of control

O=[N+]([O-])c1ccc2scc3c4ccccc4nc-3c2c1
inactive: dose: 4.37 mg/kg/injection, schedule: Q01DX009 (ip), vehicle: Klucel (hydroxypropylcellulose) (HPC) 95 % of control | dose: 8.75 mg/kg/injection, schedule: Q01DX009 (ip), vehicle: Klucel (hydroxypropylcellulose) (HPC) 101 % of control | dose: 12.5 mg/kg/injection, schedule: Q04DX003 (ip), vehicle: saline 101 % of control | dose: 17.5 mg/kg/injection, schedule: Q01DX009 (ip), vehicle: Klucel (hydroxypropylcellulose) (HPC) 89 % of control | dose: 25.0 mg/kg/injection, schedule: Q04DX003 (ip), vehicle: saline 101 % of control

CC(=O)Cc1cc(=O)[nH]c(=O)[nH]1
inactive: [2] 95 % of control | dose: 200.0 mg/kg/injection, schedule: Q01DX009 (ip), vehicle: saline with Tween-80 89 % of control

Nc1ccc2c(c1)-n1cccc1C2=O
inactive: [3] 104 % of control | [4] 101 % of control

COc1ccc(N2C(=O)C3C(C2=O)C2(Cl)C(Cl)=C(Cl)C3(Cl)C2(Cl)Cl)c(OC)c1 (centres undefined)
inactive: dose: 100.0 mg/kg/injection, schedule: Q01DX009 (ip), vehicle: Klucel (hydroxypropylcellulose) (HPC) 90 % of control | [3] 101 % of control | dose: 200.0 mg/kg/injection, schedule: Q01DX009 (ip), vehicle: Klucel (hydroxypropylcellulose) (HPC) 95 % of control | [4] 104 % of control | dose: 400.0 mg/kg/injection, schedule: Q01DX009 (ip), vehicle: Klucel (hydroxypropylcellulose) (HPC) 93 % of control | dose: 400.0 mg/kg/injection, schedule: Q04DX003 (ip), vehicle: Klucel (hydroxypropylcellulose) (HPC) 92 % of control

C[C@]12CC[C@@H]3c4ccccc4CC[C@H]3[C@@H]1CC[C@@H]2O
inactive: dose: 62.5 mg/kg/injection, schedule: Q01DX015 (sc), vehicle: steriod suspending solution 97 % of control | dose: 125.0 mg/kg/injection, schedule: Q01DX015 (sc), vehicle: steriod suspending solution 101 % of control | dose: 250.0 mg/kg/injection, schedule: Q01DX015 (sc), vehicle: steriod suspending solution 100 % of control | dose: 500.0 mg/kg/injection, schedule: Q01DX015 (sc), vehicle: steriod suspending solution 100 % of control
